The text below walks through data of patent US11866450B2, “Modulators of Cystic Fibrosis Transmembrane Conductance regulator, pharmaceutical compositions, methods of treatment, and process for making the modulators” (priority 2018, dated 2024).

Structures are written as SMILES.

The target of the test is CFTR-mediated chloride transport (Homo sapiens, UniProt P13569). It counts as cell-based. Conditions: enteroid cells incubated with test compound 18-24 hours, acute 10 μM forskolin and 300 nM Compound III; for Max. Activity: % of chloride transport with 3 μM Compound A, 3 μM Compound II and 300 nM acute Compound III triple combination control. A digest of the protocol:
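Human intestinal enteroid cells incubated with compound 18–24 h at 37° C., then membrane potential dye (FLIPR) read 15 min after chloride-free stimulation with 10 μM forskolin, 100 μM IBMX and 300 nM Compound III. AUC expressed as % of triple-combination control (3 μM Compound A, 3 μM Compound II, 300 nM Compound III).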

The EC50 is the concentration at which the effect is half-maximal.

CFTR-mediated chloride transport, sequence (P13569 whole entry, looked up): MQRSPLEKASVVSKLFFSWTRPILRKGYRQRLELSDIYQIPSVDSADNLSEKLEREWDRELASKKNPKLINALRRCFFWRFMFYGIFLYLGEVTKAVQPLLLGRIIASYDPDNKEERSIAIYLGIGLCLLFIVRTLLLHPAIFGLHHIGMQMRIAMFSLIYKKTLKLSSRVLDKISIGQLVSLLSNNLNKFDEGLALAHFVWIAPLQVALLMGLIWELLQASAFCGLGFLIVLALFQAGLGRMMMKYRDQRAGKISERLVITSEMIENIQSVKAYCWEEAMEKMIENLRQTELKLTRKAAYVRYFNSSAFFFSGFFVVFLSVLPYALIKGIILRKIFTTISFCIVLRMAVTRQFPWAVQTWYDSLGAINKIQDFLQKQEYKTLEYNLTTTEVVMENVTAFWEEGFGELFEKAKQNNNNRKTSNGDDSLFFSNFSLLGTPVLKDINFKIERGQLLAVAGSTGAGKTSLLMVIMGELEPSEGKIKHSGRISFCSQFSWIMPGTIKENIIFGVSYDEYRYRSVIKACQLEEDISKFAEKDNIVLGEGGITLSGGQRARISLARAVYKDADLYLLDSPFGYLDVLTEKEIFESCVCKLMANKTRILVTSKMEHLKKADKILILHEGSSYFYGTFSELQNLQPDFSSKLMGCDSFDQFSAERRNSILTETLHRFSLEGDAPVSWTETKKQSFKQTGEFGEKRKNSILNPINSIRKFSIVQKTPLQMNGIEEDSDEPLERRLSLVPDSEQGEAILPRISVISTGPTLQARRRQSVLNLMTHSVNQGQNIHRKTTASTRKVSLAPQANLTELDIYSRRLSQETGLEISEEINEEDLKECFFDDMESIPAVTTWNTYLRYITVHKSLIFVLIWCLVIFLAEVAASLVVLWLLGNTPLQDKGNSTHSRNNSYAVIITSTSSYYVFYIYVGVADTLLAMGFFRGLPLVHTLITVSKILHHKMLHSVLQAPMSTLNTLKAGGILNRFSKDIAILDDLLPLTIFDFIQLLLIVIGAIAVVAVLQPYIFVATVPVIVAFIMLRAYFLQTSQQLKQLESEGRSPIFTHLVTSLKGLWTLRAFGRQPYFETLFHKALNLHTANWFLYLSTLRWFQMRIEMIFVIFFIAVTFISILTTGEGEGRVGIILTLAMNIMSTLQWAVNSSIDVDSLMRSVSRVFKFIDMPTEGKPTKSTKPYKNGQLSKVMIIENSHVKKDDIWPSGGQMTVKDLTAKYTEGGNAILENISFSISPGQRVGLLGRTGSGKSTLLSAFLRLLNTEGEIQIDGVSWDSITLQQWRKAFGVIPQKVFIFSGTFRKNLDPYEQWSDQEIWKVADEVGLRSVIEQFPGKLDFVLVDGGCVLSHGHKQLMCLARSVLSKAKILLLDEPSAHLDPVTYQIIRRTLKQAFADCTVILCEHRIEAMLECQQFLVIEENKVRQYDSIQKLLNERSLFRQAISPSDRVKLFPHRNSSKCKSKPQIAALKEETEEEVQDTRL

Regarding `CC1(C)C[C@H]2CCn3ccc(n3)S(=O)(=O)NC(=O)c3ccc(-n4ccc(OCCCC5(C(F)(F)F)CC5)n4)nc3N1C2` (single isomer, unassigned) [Compound 279, 19,19-dimethyl-4-(3-{3-[1-(trifluoromethyl)cyclopropyl]propoxy}-1H-pyrazol-1-yl)-10λ^6-thia-1,3,9,14,21-pentaazatetracyclo[15.2.1.111,14.02,7]henicosa-2,4,6,11(21),12-pentaene-8,10,10-trione], the EC50 is under 1 µM and the “Max. Activity” value is “++ (++ is 30-60%)”.

As to `CC1(C)C[C@@H]2CCCNc3cccc(n3)S(=O)(=O)NC(=O)c3ccc(-n4ccc(OC[C@@H](O)CC5(C(F)(F)F)CC5)n4)nc3N1C2` (single isomer, unassigned) [Compound 283], the EC50 was under 1 µM and the “Max. Activity” value was “+++ (+++ is >60%)”.

Take `CC1(C)C[C@@H]2CCCNc3cccc(n3)S(=O)(=O)NC(=O)c3ccc(-n4ccc(OC[C@@H](O)CC5(C(F)(F)F)CC5)n4)nc3N1C2` (single isomer, unassigned) [Compound 284]: the EC50 is under 1 µM and the “Max. Activity” value is listed as “+++ (+++ is >60%)”.

Regarding `Cc1c2cnn1CCCC1CN(c3nc(-n4ccc(OCC(C)(C)C(F)(F)F)n4)ccc3C(=O)NS2(=O)=O)C(C)(C)C1` (single isomer, unassigned) [Compound 285, 20,20,22-trimethyl-4-[3-(3,3,3-trifluoro-2,2-dimethylpropoxy)-1H-pyrazol-1-yl]-10λ^6-thia-1,3,9,13,14-pentaazatetracyclo[16.2.1.111,14.02,7]docosa-2,4,6,11(22),12-pentaene-8,10,10-trione], the 50% effective concentration (EC50) is under 1 µM and the “Max. Activity” value was “+ (+ is <30%)”.

In the case of `Cc1c2cnn1CCCC1CN(c3nc(-n4ccc(OCC(C)(C)C(F)(F)F)n4)ccc3C(=O)NS2(=O)=O)C(C)(C)C1` (single isomer, unassigned) [Compound 286, 20,20,22-trimethyl-4-[3-(3,3,3-trifluoro-2,2-dimethylpropoxy)-1H-pyrazol-1-yl]-10λ^6-thia-1,3,9,13,14-pentaazatetracyclo[16.2.1.111,14.02,7]docosa-2,4,6,11(22),12-pentaene-8,10,10-trione], the EC50 is under 1 µM and the “Max. Activity” value is “+ (+ is <30%)”.

With `Cc1c2cnn1CCCC1CN(c3nc(-n4ccc(OCC(C)(C)C(F)(F)F)n4)ccc3C(=O)NS2(=O)=O)C(C)(C)C1` (single isomer, unassigned) [Compound 288, 20,20,22-trimethyl-4-[3-(3,3,3-trifluoro-2,2-dimethylpropoxy)-1H-pyrazol-1-yl]-10λ^6-thia-1,3,9,13,14-pentaazatetracyclo[16.2.1.111,14.02,7]docosa-2,4,6,11(22),12-pentaene-8,10,10-trione], the EC50 lay within 1 to 3 µM and the “Max. Activity” value is recorded as “+ (+ is <30%)”.

With `Cc1c2cnn1CCCC1CN(c3nc(-n4ccc(OCC(C)(C)C(F)(F)F)n4)ccc3C(=O)NS2(=O)=O)C(C)(C)C1` (single isomer, unassigned) [Compound 289, 20,20,22-Trimethyl-4-[3-(3,3,3-trifluoro-2,2-dimethylpropoxy)-1H-pyrazol-1-yl]-10λ^6-thia-1,3,9,13,14-pentaazatetracyclo[16.2.1.111,14.02,7]docosa-2,4,6,11(22),12-pentaene-8,10,10-trione], the EC50 is under 1 µM and the “Max. Activity” value is “++ (++ is 30-60%)”.

`Cc1nn2cc1S(=O)(=O)NC(=O)c1ccc(-n3ccc(OCC(C)(C)C(F)(F)F)n3)nc1N1C[C@H](CCC2)CC1(C)C` (single isomer, unassigned) [Compound 290, 12,20,20-trimethyl-4-[3-(3,3,3-trifluoro-2,2-dimethylpropoxy)-1H-pyrazol-1-yl]-10λ^6-thia-1,3,9,13,14-pentaazatetracyclo[16.2.1.111,14.02,7]docosa-2,4,6,11(22),12-pentaene-8,10,10-trione]: the EC50 is over 3 µM and the “Max. Activity” value is listed as “+ (+ is <30%)”.

Consider `Cc1nn2cc1S(=O)(=O)NC(=O)c1ccc(-n3ccc(OCC(C)(C)C(F)(F)F)n3)nc1N1C[C@H](CCC2)CC1(C)C` (single isomer, unassigned) [Compound 291, 12,20,20-trimethyl-4-[3-(3,3,3-trifluoro-2,2-dimethylpropoxy)-1H-pyrazol-1-yl]-10λ^6-thia-1,3,9,13,14-pentaazatetracyclo[16.2.1.111,14.02,7]docosa-2,4,6,11(22),12-pentaene-8,10,10-trione], for which the EC50 is under 1 µM and the “Max. Activity” value was “++ (++ is 30-60%)”.

In the case of `CC1(C)C[C@@H]2CCCNc3cccc(n3)S(=O)(=O)NC(=O)c3ccc(-n4ccc(OC[C@@H](O)C5C6(CC6)C56CC6)n4)nc3N1C2` (single isomer, unassigned) [Compound 293], the EC50 is under 1 µM and the “Max. Activity” value is “+++ (+++ is >60%)”.

For `CC1(C)C[C@@H]2CCCNc3cccc(n3)S(=O)(=O)NC(=O)c3ccc(-n4ccc(OC[C@@H](O)C5C6(CC6)C56CC6)n4)nc3N1C2` (single isomer, unassigned) [Compound 294], the EC50 lay within 1 to 3 µM and the “Max. Activity” value was “+++ (+++ is >60%)”.

In the case of `CC1(C)C[C@@H]2CCCNc3cccc(n3)S(=O)(=O)NC(=O)c3ccc(-n4ccc(OCC[C@@H](O)C5(C(F)(F)F)CC5)n4)nc3N1C2` (single isomer, unassigned) [Compound 296], the EC50 is under 1 µM and the “Max. Activity” value is listed as “+++ (+++ is >60%)”.

Take `CC1(C)C[C@@H]2CCCNc3cccc(n3)S(=O)(=O)NC(=O)c3ccc(-n4ccc(OCC[C@@H](O)C5(C(F)(F)F)CC5)n4)nc3N1C2` (single isomer, unassigned) [Compound 297]: the 50% effective concentration (EC50) was under 1 µM and the “Max. Activity” value is reported as “+++ (+++ is >60%)”.

With `CC1(C)C[C@@H]2CN1c1nc(-n3ccc(OCCC4(C(F)(F)F)CC4)n3)ccc1C(=O)NS(=O)(=O)c1ccn(n1)CCO2` (single isomer, unassigned) [Compound 302, 20,20-Dimethyl-4-(3-{2-[1-(trifluoromethyl)cyclopropyl]ethoxy}-1H-pyrazol-1-yl)-17-oxa-10λ^6-thia-1,3,9,14,22-pentaazatetracyclo[16.2.1.111,14.02,7]docosa-2(7),3,5,11(22),12-pentaene-8,10,10-trione], the EC50 is over 3 µM and the “Max. Activity” value is reported as “+ (+ is <30%)”.

With `CC1(C)C[C@@H]2CN1c1nc(-n3ccc(OCCC4C5(CC5)C45CC5)n3)ccc1C(=O)NS(=O)(=O)c1cccc(n1)NCC(F)(F)C2` (single isomer, unassigned) [Compound 304, 8-[3-(2-{dispiro[2.0.2.1]heptan-7-yl}ethoxy)-1H-pyrazol-1-yl]-16,16-difluoro-12,12-dimethyl-2λ^6-thia-3,9,11,18,23-pentaazatetracyclo[17.3.1.111,14.05,10]tetracosa-1(22),5,7,9,19(23),20-hexaene-2,2,4-trione], the EC50 is under 1 µM and the “Max. Activity” value is reported as “+++ (+++ is >60%)”.

As to `CC1(C)C[C@@H]2CN1c1nc(-n3ccc(OCCC4C5(CC5)C45CC5)n3)ccc1C(=O)NS(=O)(=O)c1cccc(n1)NCC(F)(F)C2` (single isomer, unassigned) [Compound 305, 8-[3-(2-{Dispiro[2.0.2.1]heptan-7-yl}ethoxy)-1H-pyrazol-1-yl]-16,16-difluoro-12,12-dimethyl-2λ^6-thia-3,9,11,18,23-pentaazatetracyclo[17.3.1.111,14.05,10]tetracosa-1(22),5,7,9,19(23),20-hexaene-2,2,4-trione], the EC50 was over 3 µM and the “Max. Activity” value is “+ (+ is <30%)”.

With `CC1(C)C[C@H]2C[C@@H](F)CNc3cccc(n3)S(=O)(=O)NC(=O)c3ccc(-n4ccc(OCCC5C6(CC6)C56CC6)n4)nc3N1C2` (single isomer, unassigned) [Compound 306, 8-[3-(2-{dispiro[2.0.2.1]heptan-7-yl}ethoxy)-1H-pyrazol-1-yl]-16-fluoro-12,12-dimethyl-2λ^6-thia-3,9,11,18,23-pentaazatetracyclo[17.3.1.111,14.05,10]tetracosa-1(22),5,7,9,19(23),20-hexaene-2,2,4-trione], the EC50 was under 1 µM and the “Max. Activity” value is reported as “+++ (+++ is >60%)”.

With `CC1(C)C[C@H]2C[C@@H](F)CNc3cccc(n3)S(=O)(=O)NC(=O)c3ccc(-n4ccc(OCCC5C6(CC6)C56CC6)n4)nc3N1C2` (single isomer, unassigned) [Compound 307, 8-[3-(2-{dispiro[2.0.2.1]heptan-7-yl}ethoxy)-1H-pyrazol-1-yl]-16-fluoro-12,12-dimethyl-2λ^6-thia-3,9,11,18,23-pentaazatetracyclo[17.3.1.111,14.05,10]tetracosa-1(22),5,7,9,19(23),20-hexaene-2,2,4-trione], the EC50 is over 3 µM and the “Max. Activity” value is listed as “+ (+ is <30%)”.

Take `CC1(C)C[C@H]2C[C@@H](F)CNc3cccc(n3)S(=O)(=O)NC(=O)c3ccc(-n4ccc(OCCC5C6(CC6)C56CC6)n4)nc3N1C2` (single isomer, unassigned) [Compound 308, 8-[3-(2-{dispiro[2.0.2.1]heptan-7-yl}ethoxy)-1H-pyrazol-1-yl]-16-fluoro-12,12-dimethyl-2λ^6-thia-3,9,11,18,23-pentaazatetracyclo[17.3.1.111,14.05,10]tetracosa-1(22),5,7,9,19(23),20-hexaene-2,2,4-trione]: the EC50 was under 1 µM and the “Max. Activity” value is “+ (+ is <30%)”.
